Results as given in ChEMBL document CHEMBL1938304, “Synthesis, characterization and activity of new phosphonate dipeptides as potential inhibitors of VanX” (Bioorg Med Chem Lett, 2012).
pIC50: −log10 of the molar value. Calls of active or inactive are those of the source. No cut-off for these calls is given here.

How the values were obtained:
[1] = Inhibition of metallo-betalactamase L1 using penicillin G as substrate up to 1 mM and pH 7
[2] = Inhibition of metallo-betalactamase CCrA using penicillin G as substrate up to 1 mM and pH 7
[3] = Inhibition of metallo-betalactamase ImiS using penicillin G as substrate up to 1 mM and pH 7
[4] = molecular target: T1, D-alanyl-D-alanine dipeptidase (Enterococcus faecium, UniProt Q06241); test: Inhibition of Enterococcus faecium VanX overexpressed in Escherichia coli BL21 (DE3) cells using D-ala-D-ala as substrate preincubated for 30 mins measured after 150 secs by modified Cd-ninhydrin method
T1 sequence (Q06241 whole entry): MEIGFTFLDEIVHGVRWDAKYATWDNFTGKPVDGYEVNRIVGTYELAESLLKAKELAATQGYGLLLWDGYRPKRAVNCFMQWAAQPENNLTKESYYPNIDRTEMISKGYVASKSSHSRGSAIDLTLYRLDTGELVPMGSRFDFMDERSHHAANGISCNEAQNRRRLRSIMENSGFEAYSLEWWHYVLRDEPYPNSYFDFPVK

[5] = molecular target: T2, D-alanyl-D-alanine dipeptidase (Enterococcus faecium) (UniProt Q06241); test: Inhibition of Enterococcus faecium VanX overexpressed in Escherichia coli BL21 (DE3) cells using D-ala-D-ala as substrate up to 5 mM preincubated for 30 mins measured after 150 secs by modified Cd-ninhydrin method
T2 sequence (whole entry): T1 sequence (Q06241 whole entry)

[6] = molecular target: T1, D-alanyl-D-alanine dipeptidase; test: Competitive inhibition of Enterococcus faecium VanX overexpressed in Escherichia coli BL21 (DE3) cells using D-ala-D-ala as substrate preincubated for 3 mins measured after 150 secs by modified Cd-ninhydrin method

| Structure (SMILES) | inhibition [1] | inhibition [2] | inhibition [3] | pIC50 [4] | inhibition [5] | pIC50 [6] |
| --- | --- | --- | --- | --- | --- | --- |
| CC(C)[C@@H](OP(=O)(O)[C@H](C)N)C(=O)O | inactive | inactive | inactive | 2.55 |  |  |
| CC[C@H](C)[C@@H](OP(=O)(O)[C@H](C)N)C(=O)O | inactive | inactive | inactive | 2.88 |  |  |
| C[C@H](N)P(=O)(O)O[C@H](CCC(=O)O)C(=O)O | inactive | inactive | inactive |  | inactive |  |
| C[C@H](N)P(=O)(O)O[C@H](Cc1ccccc1)C(=O)O | inactive | inactive | inactive | 2.09 |  |  |
| C[C@H](N)P(=O)(O)OCC(=O)O | inactive | inactive | inactive | 3.32 |  |  |
| C[C@H](N)P(=O)(O)O[C@H](C)C(=O)O | inactive | inactive | inactive |  |  | 3.12 |
| CC(C)C[C@@H](OP(=O)(O)[C@H](C)N)C(=O)O | inactive | inactive | inactive | 2.97 |  |  |
